Laboratory results from PMC11062899, “De novo development of small cyclic peptides that are orally bioavailable” (Nature Chemical Biology, 2023).

Target: human α-thrombin (Homo sapiens, UniProt P00734)
Test: Sub-library screen for active and permeable cyclic peptides (PAMPA plus thrombin inhibition)
Type: biochemical
Conditions: crude, slopes normalized to DMSO; for Residual thrombin activity: Top sample: PAMPA acceptor well after 14 h, 5 μM donor; for Residual thrombin activity: Equilibrated sample: donor sample diluted to theoretical equilibrium (1 μM in assay)
How it was run: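 Acylated cyclic peptides at 5 μM in PBS pH 7.4 with 5% DMSO were run through PAMPA for 14 h at room temperature. Acceptor wells and a diluted donor sample at 3 μM, representing maximum permeability, were preincubated 10 min with human α-thrombin (6 nM stock). Z-Gly-Gly-Arg-AMC (150 μM stock) fluorescence was then read for 30 min at 25 °C, and inhibition was taken against a no-peptide control.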

For `N#Cc1ccc(C[C@@H]2NC(=O)[C@@H](NC(=O)c3ccc(Cl)s3)CCSCc3ccccc3CSCCNC(=O)C[C@H]3CCCN3C2=O)cc1` [C2-X35-L6], the “Residual thrombin activity: Top sample” value was 90.0 and the “Residual thrombin activity: Equilibrated sample” value was 91.7.

In the case of `N#Cc1ccc(C[C@@H]2NC(=O)[C@@H](NC(=O)c3ccc(Cl)s3)CCSCC(=O)CSCCNC(=O)C[C@H]3CCCN3C2=O)cc1` [C2-X35-L7], the “Residual thrombin activity: Top sample” value is reported as 103.0 and the “Residual thrombin activity: Equilibrated sample” value is reported as 104.7.

`O=C1C[C@H]2CCCN2C(=O)[C@H](Cc2ccc(C(F)(F)F)cc2)NC(=O)[C@@H](NC(=O)c2ccc(Cl)s2)CCSCc2cccc(n2)CSCCN1` [C2-X36-L1] was tested, and the “Residual thrombin activity: Top sample” value was 95.5 and the “Residual thrombin activity: Equilibrated sample” value was 97.7.

In the case of `O=C1C[C@H]2CCCN2C(=O)[C@H](Cc2ccc(C(F)(F)F)cc2)NC(=O)[C@@H](NC(=O)c2ccc(Cl)s2)CCSCCS(=O)(=O)CCSCCN1` [C2-X36-L2], the “Residual thrombin activity: Top sample” value is reported as 101.5 and the “Residual thrombin activity: Equilibrated sample” value is reported as 101.8.

`O=C1C[C@H]2CCCN2C(=O)[C@H](Cc2ccc(C(F)(F)F)cc2)NC(=O)[C@@H](NC(=O)c2ccc(Cl)s2)CCSCc2ccc(cc2)CSCCN1` [C2-X36-L3] was tested, and the “Residual thrombin activity: Top sample” value was 95.8 and the “Residual thrombin activity: Equilibrated sample” value was 101.3.

For `O=C1C[C@H]2CCCN2C(=O)[C@H](Cc2ccc(C(F)(F)F)cc2)NC(=O)[C@@H](NC(=O)c2ccc(Cl)s2)CCSC/C=C/CSCCN1` [C2-X36-L4], the “Residual thrombin activity: Top sample” value was 103.3 and the “Residual thrombin activity: Equilibrated sample” value was 101.3.

For `O=C1C[C@H]2CCCN2C(=O)[C@H](Cc2ccc(C(F)(F)F)cc2)NC(=O)[C@@H](NC(=O)c2ccc(Cl)s2)CCSCc2cccc(c2)CSCCN1` [C2-X36-L5], the “Residual thrombin activity: Top sample” value was 106.2 and the “Residual thrombin activity: Equilibrated sample” value was 106.1.

With `O=C1C[C@H]2CCCN2C(=O)[C@H](Cc2ccc(C(F)(F)F)cc2)NC(=O)[C@@H](NC(=O)c2ccc(Cl)s2)CCSCc2ccccc2CSCCN1` [C2-X36-L6] the “Residual thrombin activity: Top sample” value was 96.8 and the “Residual thrombin activity: Equilibrated sample” value was 97.9.

In the case of `O=C1CSCCNC(=O)C[C@H]2CCCN2C(=O)[C@H](Cc2ccc(C(F)(F)F)cc2)NC(=O)[C@@H](NC(=O)c2ccc(Cl)s2)CCSC1` [C2-X36-L7], the “Residual thrombin activity: Top sample” value is reported as 102.7 and the “Residual thrombin activity: Equilibrated sample” value is reported as 104.5.

`Cc1cccc(C[C@@H]2NC(=O)[C@@H](NC(=O)c3ccc(Cl)s3)CCSCc3cccc(n3)CSCCNC(=O)C[C@H]3CCCN3C2=O)c1` [C2-X37-L1] was tested, and the “Residual thrombin activity: Top sample” value was 88.2 and the “Residual thrombin activity: Equilibrated sample” value was 83.3.

For `Cc1cccc(C[C@@H]2NC(=O)[C@@H](NC(=O)c3ccc(Cl)s3)CCSCCS(=O)(=O)CCSCCNC(=O)C[C@H]3CCCN3C2=O)c1` [C2-X37-L2], the “Residual thrombin activity: Top sample” value was 97.6 and the “Residual thrombin activity: Equilibrated sample” value was 73.7.

`Cc1cccc(C[C@@H]2NC(=O)[C@@H](NC(=O)c3ccc(Cl)s3)CCSCc3ccc(cc3)CSCCNC(=O)C[C@H]3CCCN3C2=O)c1` [C2-X37-L3] was tested, and the “Residual thrombin activity: Top sample” value was 100.6 and the “Residual thrombin activity: Equilibrated sample” value was 94.8.

For `Cc1cccc(C[C@@H]2NC(=O)[C@@H](NC(=O)c3ccc(Cl)s3)CCSC/C=C/CSCCNC(=O)C[C@H]3CCCN3C2=O)c1` [C2-X37-L4], the “Residual thrombin activity: Top sample” value was 90.6 and the “Residual thrombin activity: Equilibrated sample” value was 77.5.

With `Cc1cccc(C[C@@H]2NC(=O)[C@@H](NC(=O)c3ccc(Cl)s3)CCSCc3cccc(c3)CSCCNC(=O)C[C@H]3CCCN3C2=O)c1` [C2-X37-L5] the “Residual thrombin activity: Top sample” value was 104.6 and the “Residual thrombin activity: Equilibrated sample” value was 95.0.

In the case of `Cc1cccc(C[C@@H]2NC(=O)[C@@H](NC(=O)c3ccc(Cl)s3)CCSCc3ccccc3CSCCNC(=O)C[C@H]3CCCN3C2=O)c1` [C2-X37-L6], the “Residual thrombin activity: Top sample” value is reported as 97.5 and the “Residual thrombin activity: Equilibrated sample” value is reported as 96.9.

`Cc1cccc(C[C@@H]2NC(=O)[C@@H](NC(=O)c3ccc(Cl)s3)CCSCC(=O)CSCCNC(=O)C[C@H]3CCCN3C2=O)c1` [C2-X37-L7] was tested, and the “Residual thrombin activity: Top sample” value was 99.9 and the “Residual thrombin activity: Equilibrated sample” value was 83.6.

For `O=C1C[C@H]2CCCN2C(=O)[C@H](Cc2ccccc2)NC(=O)[C@@H](NC(=O)c2ccc(Cl)s2)CCCSCc2cccc(n2)CSCCN1` [C3-X5-L1], the “Residual thrombin activity: Top sample” value was 64.7 and the “Residual thrombin activity: Equilibrated sample” value was 75.1.

With `O=C1C[C@H]2CCCN2C(=O)[C@H](Cc2ccccc2)NC(=O)[C@@H](NC(=O)c2ccc(Cl)s2)CCCSCCS(=O)(=O)CCSCCN1` [C3-X5-L2] the “Residual thrombin activity: Top sample” value was 81.8 and the “Residual thrombin activity: Equilibrated sample” value was 27.6.

With `O=C1C[C@H]2CCCN2C(=O)[C@H](Cc2ccccc2)NC(=O)[C@@H](NC(=O)c2ccc(Cl)s2)CCCSCc2ccc(cc2)CSCCN1` [C3-X5-L3] the “Residual thrombin activity: Top sample” value was 86.8 and the “Residual thrombin activity: Equilibrated sample” value was 50.1.

`O=C1C[C@H]2CCCN2C(=O)[C@H](Cc2ccccc2)NC(=O)[C@@H](NC(=O)c2ccc(Cl)s2)CCCSC/C=C/CSCCN1` [C3-X5-L4] was tested, and the “Residual thrombin activity: Top sample” value was 55.8 and the “Residual thrombin activity: Equilibrated sample” value was 36.8.

`O=C1C[C@H]2CCCN2C(=O)[C@H](Cc2ccccc2)NC(=O)[C@@H](NC(=O)c2ccc(Cl)s2)CCCSCc2cccc(c2)CSCCN1` [C3-X5-L5] was tested, and the “Residual thrombin activity: Top sample” value was 84.2 and the “Residual thrombin activity: Equilibrated sample” value was 60.5.

For `O=C1C[C@H]2CCCN2C(=O)[C@H](Cc2ccccc2)NC(=O)[C@@H](NC(=O)c2ccc(Cl)s2)CCCSCc2ccccc2CSCCN1` [C3-X5-L6], the “Residual thrombin activity: Top sample” value was 74.4 and the “Residual thrombin activity: Equilibrated sample” value was 55.6.

With `O=C1CSCCC[C@H](NC(=O)c2ccc(Cl)s2)C(=O)N[C@@H](Cc2ccccc2)C(=O)N2CCC[C@@H]2CC(=O)NCCSC1` [C3-X5-L7] the “Residual thrombin activity: Top sample” value was 73.4 and the “Residual thrombin activity: Equilibrated sample” value was 33.5.

`O=C1C[C@H]2CCCN2C(=O)[C@@H](Cc2ccccc2)NC(=O)[C@@H](NC(=O)c2ccc(Cl)s2)CCCSCc2cccc(n2)CSCCN1` [C3-X31-L1] was tested, and the “Residual thrombin activity: Top sample” value was 96.1 and the “Residual thrombin activity: Equilibrated sample” value was 92.4.

For `O=C1C[C@H]2CCCN2C(=O)[C@@H](Cc2ccccc2)NC(=O)[C@@H](NC(=O)c2ccc(Cl)s2)CCCSCCS(=O)(=O)CCSCCN1` [C3-X31-L2], the “Residual thrombin activity: Top sample” value was 103.5 and the “Residual thrombin activity: Equilibrated sample” value was 93.7.

With `O=C1C[C@H]2CCCN2C(=O)[C@@H](Cc2ccccc2)NC(=O)[C@@H](NC(=O)c2ccc(Cl)s2)CCCSCc2ccc(cc2)CSCCN1` [C3-X31-L3] the “Residual thrombin activity: Top sample” value was 99.4 and the “Residual thrombin activity: Equilibrated sample” value was 96.8.

In the case of `O=C1C[C@H]2CCCN2C(=O)[C@@H](Cc2ccccc2)NC(=O)[C@@H](NC(=O)c2ccc(Cl)s2)CCCSC/C=C/CSCCN1` [C3-X31-L4], the “Residual thrombin activity: Top sample” value is reported as 100.8 and the “Residual thrombin activity: Equilibrated sample” value is reported as 98.3.

In the case of `O=C1C[C@H]2CCCN2C(=O)[C@@H](Cc2ccccc2)NC(=O)[C@@H](NC(=O)c2ccc(Cl)s2)CCCSCc2cccc(c2)CSCCN1` [C3-X31-L5], the “Residual thrombin activity: Top sample” value is reported as 105.2 and the “Residual thrombin activity: Equilibrated sample” value is reported as 103.4.

`O=C1C[C@H]2CCCN2C(=O)[C@@H](Cc2ccccc2)NC(=O)[C@@H](NC(=O)c2ccc(Cl)s2)CCCSCc2ccccc2CSCCN1` [C3-X31-L6] was tested, and the “Residual thrombin activity: Top sample” value was 97.6 and the “Residual thrombin activity: Equilibrated sample” value was 87.4.

For `O=C1CSCCC[C@H](NC(=O)c2ccc(Cl)s2)C(=O)N[C@H](Cc2ccccc2)C(=O)N2CCC[C@@H]2CC(=O)NCCSC1` [C3-X31-L7], the “Residual thrombin activity: Top sample” value was 102.1 and the “Residual thrombin activity: Equilibrated sample” value was 99.4.

`CN1C(=O)[C@@H](NC(=O)c2ccc(Cl)s2)CCCSCc2cccc(n2)CSCCNC(=O)C[C@H]2CCCN2C(=O)[C@@H]1Cc1ccccc1` [C3-X32-L1] was tested, and the “Residual thrombin activity: Top sample” value was 99.5 and the “Residual thrombin activity: Equilibrated sample” value was 98.5.

For `CN1C(=O)[C@@H](NC(=O)c2ccc(Cl)s2)CCCSCCS(=O)(=O)CCSCCNC(=O)C[C@H]2CCCN2C(=O)[C@@H]1Cc1ccccc1` [C3-X32-L2], the “Residual thrombin activity: Top sample” value was 103.4 and the “Residual thrombin activity: Equilibrated sample” value was 103.4.

For `CN1C(=O)[C@@H](NC(=O)c2ccc(Cl)s2)CCCSCc2ccc(cc2)CSCCNC(=O)C[C@H]2CCCN2C(=O)[C@@H]1Cc1ccccc1` [C3-X32-L3], the “Residual thrombin activity: Top sample” value was 101.7 and the “Residual thrombin activity: Equilibrated sample” value was 98.3.

For `CN1C(=O)[C@@H](NC(=O)c2ccc(Cl)s2)CCCSC/C=C/CSCCNC(=O)C[C@H]2CCCN2C(=O)[C@@H]1Cc1ccccc1` [C3-X32-L4], the “Residual thrombin activity: Top sample” value was 101.4 and the “Residual thrombin activity: Equilibrated sample” value was 100.1.

`CN1C(=O)[C@@H](NC(=O)c2ccc(Cl)s2)CCCSCc2cccc(c2)CSCCNC(=O)C[C@H]2CCCN2C(=O)[C@@H]1Cc1ccccc1` [C3-X32-L5] was tested, and the “Residual thrombin activity: Top sample” value was 103.6 and the “Residual thrombin activity: Equilibrated sample” value was 103.6.

In the case of `CN1C(=O)[C@@H](NC(=O)c2ccc(Cl)s2)CCCSCc2ccccc2CSCCNC(=O)C[C@H]2CCCN2C(=O)[C@@H]1Cc1ccccc1` [C3-X32-L6], the “Residual thrombin activity: Top sample” value is reported as 99.5 and the “Residual thrombin activity: Equilibrated sample” value is reported as 96.0.

With `CN1C(=O)[C@@H](NC(=O)c2ccc(Cl)s2)CCCSCC(=O)CSCCNC(=O)C[C@H]2CCCN2C(=O)[C@@H]1Cc1ccccc1` [C3-X32-L7] the “Residual thrombin activity: Top sample” value was 102.9 and the “Residual thrombin activity: Equilibrated sample” value was 98.1.

`COc1ccc(C[C@@H]2NC(=O)[C@@H](NC(=O)c3ccc(Cl)s3)CCCSCc3cccc(n3)CSCCNC(=O)C[C@H]3CCCN3C2=O)cc1` [C3-X33-L1] was tested, and the “Residual thrombin activity: Top sample” value was 99.7 and the “Residual thrombin activity: Equilibrated sample” value was 94.6.

In the case of `COc1ccc(C[C@@H]2NC(=O)[C@@H](NC(=O)c3ccc(Cl)s3)CCCSCCS(=O)(=O)CCSCCNC(=O)C[C@H]3CCCN3C2=O)cc1` [C3-X33-L2], the “Residual thrombin activity: Top sample” value is reported as 105.7 and the “Residual thrombin activity: Equilibrated sample” value is reported as 97.1.

`COc1ccc(C[C@@H]2NC(=O)[C@@H](NC(=O)c3ccc(Cl)s3)CCCSCc3ccc(cc3)CSCCNC(=O)C[C@H]3CCCN3C2=O)cc1` [C3-X33-L3] was tested, and the “Residual thrombin activity: Top sample” value was 102.2 and the “Residual thrombin activity: Equilibrated sample” value was 103.1.

`COc1ccc(C[C@@H]2NC(=O)[C@@H](NC(=O)c3ccc(Cl)s3)CCCSC/C=C/CSCCNC(=O)C[C@H]3CCCN3C2=O)cc1` [C3-X33-L4] was tested, and the “Residual thrombin activity: Top sample” value was 105.1 and the “Residual thrombin activity: Equilibrated sample” value was 97.8.
